From paper PMC5218480 (PLoS ONE, 2017)

Tested on: MV-4-11 cells
Assay: Gene expression microarray analysis (Affymetrix PrimeView) and GSEA
Assay type: cell-based, human
Set-up: RFU PODN (11730768_x_at) / Fold change /veh PODN (11730768_x_at) / RFU LINC00158 (11744669_a_at) / Fold change /veh LINC00158 (11744669_a_at) / RFU DUSP10 (11751237_a_at) / Fold change /veh DUSP10 (11751237_a_at) / RFU ID3 (11757404_x_at) / Fold change /veh ID3 (11757404_x_at) / RFU PLEKHG5 (11737974_s_at) / Fold change /veh PLEKHG5 (11737974_s_at) / RFU LRRC4B (11730491_at) / Fold change /veh LRRC4B (11730491_at) / RFU GIMAP4 (11747438_a_at) / Fold change /veh GIMAP4 (11747438_a_at) / RFU KRT8 (11758183_x_at) / Fold change /veh KRT8 (11758183_x_at) / RFU CNN1 (11734310_a_at) / Fold change /veh CNN1 (11734310_a_at) / RFU VPS37D (11726825_at) / Fold change /veh VPS37D (11726825_at) / RFU C10orf10 (11716522_x_at) / Fold change /veh C10orf10 (11716522_x_at) / RFU KIR2DL2 /// KIR2DL4 /// KIR2DL5A /// KIR2DL5B /// KIR2DS1 /// KIR2DS2 /// KIR2DS3 /// KIR2DS4 /// KIR3DL3 /// KIR3DL3 /// KIR3DS1 (11738374_at) / Fold change /veh KIR2DL2 /// KIR2DL4 /// KIR2DL5A /// KIR2DL5B /// KIR2DS1 /// KIR2DS2 /// KIR2DS3 /// KIR2DS4 /// KIR3DL3 /// KIR3DL3 /// KIR3DS1 (11738374_at) / RFU C1QL1 (11718748_at) / Fold change /veh C1QL1 (11718748_at) / RFU TMPRSS4 (11747572_a_at) / Fold change /veh TMPRSS4 (11747572_a_at) / RFU HAMP (11756126_x_at) / Fold change /veh HAMP (11756126_x_at) / RFU RNFT2 (11725882_a_at) / Fold change /veh RNFT2 (11725882_a_at) / RFU NR4A2 (11747474_a_at) / Fold change /veh NR4A2 (11747474_a_at) / RFU ABCC12 (11746883_a_at) / Fold change /veh ABCC12 (11746883_a_at) / RFU TMEM136 (11760407_x_at) / Fold change /veh TMEM136 (11760407_x_at) / RFU CLDN22 /// WWC2 (11732394_at) / Fold change /veh CLDN22 /// WWC2 (11732394_at) / RFU HLA-DPB1 (11760878_x_at) / Fold change /veh HLA-DPB1 (11760878_x_at) / RFU SPINT1 (11716480_a_at) / Fold change /veh SPINT1 (11716480_a_at) / RFU GAP43 (11754022_s_at) / Fold change /veh GAP43 (11754022_s_at) / RFU A4GNT (11735810_at) / Fold change /veh A4GNT (11735810_at) / RFU PRB3 (11715151_x_at) / Fold change /veh PRB3 (11715151_x_at) / RFU TUBB4B (11761932_at) / Fold change /veh TUBB4B (11761932_at) / RFU CAPN14 (11732068_a_at) / Fold change /veh CAPN14 (11732068_a_at) / RFU TMCC2 (11721928_a_at) / Fold change /veh TMCC2 (11721928_a_at) / RFU IRGQ (11745062_a_at) / Fold change /veh IRGQ (11745062_a_at) / RFU FAM174B (11720279_a_at) / Fold change /veh FAM174B (11720279_a_at) / RFU TMPRSS4 (11748680_a_at) / Fold change /veh TMPRSS4 (11748680_a_at) / RFU FAM212B (11763350_a_at) / Fold change /veh FAM212B (11763350_a_at) / RFU PLEKHG5 (11743358_a_at) / Fold change /veh PLEKHG5 (11743358_a_at) / RFU ZSCAN30 (11745921_a_at) / Fold change /veh ZSCAN30 (11745921_a_at) / RFU CMKLR1 (11741424_a_at) / Fold change /veh CMKLR1 (11741424_a_at) / RFU LOC101060620 /// MAPK8IP1 (11723275_at) / Fold change /veh LOC101060620 /// MAPK8IP1 (11723275_at) / RFU SPTSSB (11747773_x_at) / Fold change /veh SPTSSB (11747773_x_at) / RFU PRSS12 (11739890_at) / Fold change /veh PRSS12 (11739890_at) / RFU BIN1 (11741810_x_at) / Fold change /veh BIN1 (11741810_x_at) / RFU WNT11 (11732464_a_at) / Fold change /veh WNT11 (11732464_a_at) / RFU C10orf10 (11716521_a_at) / Fold change /veh C10orf10 (11716521_a_at) / RFU C5orf56 (11738089_at) / Fold change /veh C5orf56 (11738089_at) / RFU CYB561 (11721691_x_at) / Fold change /veh CYB561 (11721691_x_at) / RFU ANKRD19P (11752326_a_at) / Fold change /veh ANKRD19P (11752326_a_at) / RFU OR2T12 /// OR2T33 /// OR2T8 (11738714_s_at) / Fold change /veh OR2T12 /// OR2T33 /// OR2T8 (11738714_s_at) / RFU VCAN (11748164_a_at) / Fold change /veh VCAN (11748164_a_at) / RFU JSRP1 (11732532_at) / Fold change /veh JSRP1 (11732532_at) / RFU KRTAP10-11 (11738290_x_at) / Fold change /veh KRTAP10-11 (11738290_x_at) / RFU MYO3A (11730013_a_at) / Fold change /veh MYO3A (11730013_a_at) / RFU EBF3 (11725865_a_at) / Fold change /veh EBF3 (11725865_a_at) / RFU CAMK2N1 (11719241_x_at) / Fold change /veh CAMK2N1 (11719241_x_at) / RFU C5orf56 (11738088_a_at) / Fold change /veh C5orf56 (11738088_a_at) / RFU OLFML3 (11715873_a_at) / Fold change /veh OLFML3 (11715873_a_at) / RFU LOC100653217 /// NTM (11731650_a_at) / Fold change /veh LOC100653217 /// NTM (11731650_a_at) / RFU MAPK11 (11762145_a_at) / Fold change /veh MAPK11 (11762145_a_at) / RFU FIZ1 (11724087_x_at) / Fold change /veh FIZ1 (11724087_x_at) / RFU OASL (11726364_x_at) / Fold change /veh OASL (11726364_x_at) / RFU SOX15 (11748057_x_at) / Fold change /veh SOX15 (11748057_x_at) / RFU CD79A (11719716_a_at) / Fold change /veh CD79A (11719716_a_at) / RFU HIST1H1D (11736915_at) / Fold change /veh HIST1H1D (11736915_at) / RFU CASKIN2 (11723855_a_at) / Fold change /veh CASKIN2 (11723855_a_at) / RFU LOC730098 (11760151_x_at) / Fold change /veh LOC730098 (11760151_x_at) / RFU OR4N2 (11742367_at) / Fold change /veh OR4N2 (11742367_at) / RFU PRRT2 (11749266_a_at) / Fold change /veh PRRT2 (11749266_a_at) / RFU SNX32 (11753110_a_at) / Fold change /veh SNX32 (11753110_a_at) / RFU CDHR5 (11726645_a_at) / Fold change /veh CDHR5 (11726645_a_at) / RFU RCAN1 (11760418_a_at) / Fold change /veh RCAN1 (11760418_a_at) / RFU FAM167A (11723789_a_at) / Fold change /veh FAM167A (11723789_a_at) / RFU FAM26E (11764081_at) / Fold change /veh FAM26E (11764081_at) / RFU ISYNA1 (11749810_s_at) / Fold change /veh ISYNA1 (11749810_s_at) / RFU ACY1 (11761880_at) / Fold change /veh ACY1 (11761880_at) / RFU 11764098_at / Fold change /veh 11764098_at / RFU SAMD14 (11745864_x_at) / Fold change /veh SAMD14 (11745864_x_at) / RFU NPB (11741838_a_at) / Fold change /veh NPB (11741838_a_at) / RFU TMPRSS6 (11731388_a_at) / Fold change /veh TMPRSS6 (11731388_a_at) / RFU KRTAP10-2 (11738614_at) / Fold change /veh KRTAP10-2 (11738614_at) / RFU ARHGAP8 /// PRR5-ARHGAP8 (11727945_x_at) / Fold change /veh ARHGAP8 /// PRR5-ARHGAP8 (11727945_x_at) / RFU KRTAP5-7 /// NADSYN1 (11734609_at) / Fold change /veh KRTAP5-7 /// NADSYN1 (11734609_at) / RFU RASL12 (11751679_a_at) / Fold change /veh RASL12 (11751679_a_at) / RFU CDKN2B (11736163_a_at) / Fold change /veh CDKN2B (11736163_a_at) / RFU PRF1 (11729649_at) / Fold change /veh PRF1 (11729649_at) / RFU, ZNF638 /// ZNF638-IT1 / Fold change vs veh, ZNF638 /// ZNF638-IT1 / RFU, PANK3 / Fold change vs veh, PANK3 / RFU, SH3YL1 / Fold change vs veh, SH3YL1 / RFU, ZEB2 / Fold change vs veh, ZEB2 / RFU, NRIP1 / Fold change vs veh, NRIP1 / RFU, PTTG1IP / Fold change vs veh, PTTG1IP / RFU, CAPN2 / Fold change vs veh, CAPN2 / RFU, MED14 / Fold change vs veh, MED14 / RFU, SNORA58 / Fold change vs veh, SNORA58 / RFU, C1orf63 / Fold change vs veh, C1orf63 / RFU, LRRFIP1 / Fold change vs veh, LRRFIP1 / RFU, NDUFAF7 / Fold change vs veh, NDUFAF7 / RFU, SLC12A2 / Fold change vs veh, SLC12A2 / RFU, IBTK / Fold change vs veh, IBTK / RFU, ESF1 / Fold change vs veh, ESF1 / Fold change vs veh, TMEM50B / RFU, TAOK1 / Fold change vs veh, TAOK1 / RFU, ACBD3 / Fold change vs veh, ACBD3 / RFU, TMA16 / Fold change vs veh, TMA16 / RFU, RWDD3 / Fold change vs veh, RWDD3 / RFU, BCAT1 / Fold change vs veh, BCAT1 / RFU, EDEM3 / Fold change vs veh, EDEM3 / RFU, TMEM33 / Fold change vs veh, TMEM33 / RFU, WDR75 / Fold change vs veh, WDR75 / RFU, AHCTF1 / Fold change vs veh, AHCTF1 / RFU, TFRC / Fold change vs veh, TFRC / RFU, ZDHHC17 / Fold change vs veh, ZDHHC17 / RFU, NOM1 / Fold change vs veh, NOM1 / RFU, ARL8B / Fold change vs veh, ARL8B / RFU, ZBTB11 / Fold change vs veh, ZBTB11 / RFU, TAMM41 / Fold change vs veh, TAMM41 / RFU, KIAA1704 /// LOC100996395 / Fold change vs veh, KIAA1704 /// LOC100996395 / RFU, ING1 / Fold change vs veh, ING1 / RFU, TRMT61B / Fold change vs veh, TRMT61B / RFU, FUBP3 / Fold change vs veh, FUBP3 / RFU, TP53 / Fold change vs veh, TP53 / RFU, TNKS2 / Fold change vs veh, TNKS2 / RFU, ZFP14 / Fold change vs veh, ZFP14 / RFU, ACTR2 / Fold change vs veh, ACTR2 / RFU, PPP3R1 / Fold change vs veh, PPP3R1 / RFU, PIK3R1 / Fold change vs veh, PIK3R1 / RFU, HNRNPA1 / Fold change vs veh, HNRNPA1 / RFU, RNF170 / Fold change vs veh, RNF170 / RFU, ZNF28 / Fold change vs veh, ZNF28 / RFU, RNGTT / Fold change vs veh, RNGTT / RFU, OGT / Fold change vs veh, OGT / RFU, BRD1 / Fold change vs veh, BRD1 / RFU, MARS / Fold change vs veh, MARS / RFU, ZNF655 / Fold change vs veh, ZNF655 / RFU, FAHD1 / Fold change vs veh, FAHD1 / RFU, BDP1 / Fold change vs veh, BDP1 / RFU, LRRCC1 / Fold change vs veh, LRRCC1 / RFU, ARID1A / Fold change vs veh, ARID1A / RFU, ZNF146 / Fold change vs veh, ZNF146 / RFU, ZNF330 / Fold change vs veh, ZNF330 / RFU, GPN3 / Fold change vs veh, GPN3 / RFU, C9orf123 / Fold change vs veh, C9orf123 / RFU, N4BP2L2 / Fold change vs veh, N4BP2L2 / RFU, ARFIP1 / Fold change vs veh, ARFIP1 / RFU, FAM179B / Fold change vs veh, FAM179B / RFU, BCL10 / Fold change vs veh, BCL10 / RFU, UHRF1BP1L / Fold change vs veh, UHRF1BP1L / RFU, BET1 / Fold change vs veh, BET1 / RFU, CNOT2 / Fold change vs veh, CNOT2 / RFU, ZNF268 / Fold change vs veh, ZNF268 / Fold change vs veh, ZNF507 / RFU, DGCR2 / Fold change vs veh, DGCR2 / RFU, WDSUB1 / Fold change vs veh, WDSUB1 / Fold change vs veh, HSP90B1 /// MIR3652 / RFU, ADSS / Fold change vs veh, ADSS / RFU, GK / Fold change vs veh, GK / RFU, ZNF148 / Fold change vs veh, ZNF148 / RFU, TAF9 / Fold change vs veh, TAF9 / RFU, SLC1A5 / Fold change vs veh, SLC1A5 / RFU, SLMO2 / Fold change vs veh, SLMO2 / RFU, ABCC4 / Fold change vs veh, ABCC4 / RFU, LOC101060439 /// RAP1B / Fold change vs veh, LOC101060439 /// RAP1B / RFU, RFX7 / Fold change vs veh, RFX7 / RFU, GTPBP10 / Fold change vs veh, GTPBP10 / RFU, CNEP1R1 / Fold change vs veh, CNEP1R1 / RFU, BIVM-ERCC5 /// ERCC5 / Fold change vs veh, BIVM-ERCC5 /// ERCC5 / RFU, ILF3 / Fold change vs veh, ILF3 / RFU 11762660_at / Fold change /veh 11762660_at / RFU VCAN (11757783_s_at) / Fold change /veh VCAN (11757783_s_at) / RFU DDX43 (11728927_at) / Fold change /veh DDX43 (11728927_at) / RFU KRT8 (11758188_x_at) / Fold change /veh KRT8 (11758188_x_at) / RFU NKD1 (11759106_at) / Fold change /veh NKD1 (11759106_at) / RFU SRD5A1 (11742802_a_at) / Fold change /veh SRD5A1 (11742802_a_at) / RFU TPSAB1 /// TPSB2 (11721975_s_at) / Fold change /veh TPSAB1 /// TPSB2 (11721975_s_at) / RFU GSTM3 (11746129_a_at) / Fold change /veh GSTM3 (11746129_a_at) / RFU IL23R (11737362_x_at) / Fold change /veh IL23R (11737362_x_at) / RFU TMEM51 (11727254_a_at) / Fold change /veh TMEM51 (11727254_a_at) / RFU PIWIL2 (11732686_x_at) / Fold change /veh PIWIL2 (11732686_x_at) / RFU ORM1 (11744905_x_at) / Fold change /veh ORM1 (11744905_x_at) / RFU CCDC152 (11743942_at) / Fold change /veh CCDC152 (11743942_at) / RFU ECM1 (11717891_a_at) / Fold change /veh ECM1 (11717891_a_at) / RFU IL23R (11748794_a_at) / Fold change /veh IL23R (11748794_a_at) / RFU TNFAIP8L3 (11732012_x_at) / Fold change /veh TNFAIP8L3 (11732012_x_at) / RFU MBOAT4 (11741988_at) / Fold change /veh MBOAT4 (11741988_at) / RFU 11764193_at / Fold change /veh 11764193_at / RFU TMEM53 (11763286_at) / Fold change /veh TMEM53 (11763286_at) / RFU MAGEB2 (11727129_at) / Fold change /veh MAGEB2 (11727129_at) / RFU TMEM200A (11744735_a_at) / Fold change /veh TMEM200A (11744735_a_at) / RFU CCDC152 (11751479_a_at) / Fold change /veh CCDC152 (11751479_a_at) / RFU FAM211A (11726209_a_at) / Fold change /veh FAM211A (11726209_a_at) / RFU RGS16 (11746705_a_at) / Fold change /veh RGS16 (11746705_a_at) / RFU VCAN (11755009_s_at) / Fold change /veh VCAN (11755009_s_at) / RFU RHOB (11743442_s_at) / Fold change /veh RHOB (11743442_s_at) / RFU RGS16 (11720943_a_at) / Fold change /veh RGS16 (11720943_a_at) / RFU RGS16 (11720944_at) / Fold change /veh RGS16 (11720944_at) / RFU, VPS4B / Fold change vs veh, VPS4B / RFU, CREB1 / Fold change vs veh, CREB1 / RFU, DNAJC13 / Fold change vs veh, DNAJC13 / RFU, GNAQ / Fold change vs veh, GNAQ / RFU, CDK5R1 / Fold change vs veh, CDK5R1 / RFU, ZRANB3 / Fold change vs veh, ZRANB3 / RFU, CUL4A / Fold change vs veh, CUL4A / RFU, CCNY / Fold change vs veh, CCNY / RFU, UFL1 / Fold change vs veh, UFL1 / RFU, COG3 / Fold change vs veh, COG3 / RFU, DIAPH2 / Fold change vs veh, DIAPH2 / RFU, SKA2 / Fold change vs veh, SKA2 / RFU, AFF3 / Fold change vs veh, AFF3 / RFU, LMF1 / Fold change vs veh, LMF1 / RFU, IPO11 / Fold change vs veh, IPO11 / RFU, DFFB / Fold change vs veh, DFFB / RFU, FOXP1 / Fold change vs veh, FOXP1 / RFU, CARD8 / Fold change vs veh, CARD8 / RFU, STRN3 / Fold change vs veh, STRN3 / RFU, ADK / Fold change vs veh, ADK / RFU, RASSF2 / Fold change vs veh, RASSF2 / RFU, WIPF1 / Fold change vs veh, WIPF1 / RFU, LARP1B / Fold change vs veh, LARP1B / RFU, RASA1 / Fold change vs veh, RASA1 / RFU, RB1 / Fold change vs veh, RB1 / RFU, PPFIA1 / Fold change vs veh, PPFIA1 / RFU, MAT2A / Fold change vs veh, MAT2A / RFU, CCT5 / Fold change vs veh, CCT5 / RFU, WDR92 / Fold change vs veh, WDR92 / RFU, CUX1 / Fold change vs veh, CUX1 / RFU, TTC7A / Fold change vs veh, TTC7A / RFU, TMEM135 / Fold change vs veh, TMEM135 / RFU, DEPTOR / Fold change vs veh, DEPTOR / RFU, CPM / Fold change vs veh, CPM / RFU, DNAJB6 / Fold change vs veh, DNAJB6 / RFU, CACNA2D3 / Fold change vs veh, CACNA2D3 / RFU, DTX4 / Fold change vs veh, DTX4 / RFU, TFCP2 / Fold change vs veh, TFCP2 / RFU, GMCL1 /// GMCL1P1 / Fold change vs veh, GMCL1 /// GMCL1P1 / RFU, AEBP2 / Fold change vs veh, AEBP2 / RFU, SNHG1 /// SNORD22 /// SNORD25 /// SNORD26 /// SNORD27 /// SNORD28 /// SNORD29 /// SNORD31 / Fold change vs veh, SNHG1 /// SNORD22 /// SNORD25 /// SNORD26 /// SNORD27 /// SNORD28 /// SNORD29 /// SNORD31 / Fold change (Aza/veh), C12orf56 (ProbeSet 11735607_a_at) / Fold change (ACY-1035/veh), C12orf56 (ProbeSet 11735607_a_at) / Fold change (Aza/veh), FGFR1OP (ProbeSet 11751329_s_at) / Fold change (ACY-1035/veh), FGFR1OP (ProbeSet 11751329_s_at) / Fold change (Aza/veh), VPS36 (ProbeSet 11739960_a_at) / Fold change (ACY-1035/veh), VPS36 (ProbeSet 11739960_a_at) / RFU SYPL1 (11715823_x_at) / Fold change /veh SYPL1 (11715823_x_at) / RFU IGFBP7 (11715501_s_at) / Fold change /veh IGFBP7 (11715501_s_at) / RFU REEP3 (11722064_at) / Fold change /veh REEP3 (11722064_at) / RFU IGLL1 (11728026_x_at) / Fold change /veh IGLL1 (11728026_x_at): dose or concentration left out as unconfirmed
Details: ProbeSet 11745428_a_at; LIST D

Nc1ncn([C@@H]2O[C@H](CO)[C@@H](O)[C@H]2O)c(=O)n1 [azacitidine]
RFU, DFFB: 92.76 RFU
